Target: ERK2 enzyme (Homo sapiens (Human), UniProt P28482)
Assay: Inhibition assay of ERK (Z'-LYTE kinase assay, Ser/Thr 3 peptide substrate)
Format: biochemical
Settings: 100 μM ATP
[1] = In vitro, ERK2 enzyme 0.47 ng/μL

Sequence of ERK2 enzyme (P28482 whole entry): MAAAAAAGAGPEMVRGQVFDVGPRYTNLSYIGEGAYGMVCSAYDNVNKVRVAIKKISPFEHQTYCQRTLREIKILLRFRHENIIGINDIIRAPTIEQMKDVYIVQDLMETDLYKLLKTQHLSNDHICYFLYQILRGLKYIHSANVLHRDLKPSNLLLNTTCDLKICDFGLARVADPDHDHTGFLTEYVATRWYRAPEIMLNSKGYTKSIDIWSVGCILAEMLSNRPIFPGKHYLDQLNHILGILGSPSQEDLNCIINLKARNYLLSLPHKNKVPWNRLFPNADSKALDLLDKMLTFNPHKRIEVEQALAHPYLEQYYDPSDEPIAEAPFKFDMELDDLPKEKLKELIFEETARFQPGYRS

Row | IC50 [1] [µM] | IC50 (In vitro ERK2 enzyme) [µM] | Compound
1 | < 0.05 |  | CC(c1ccccc1)c1cc2cc3c(-c4ccc(=O)n(C)c4)n[nH]c3cc2[nH]c1=O (stereo not drawn) [Compound 347]
2 |  | < 0.05 | COc1ccc(-c2n[nH]c3cc4c(cc23)CN(Cc2cc(F)cc(F)c2)C(=O)N4)cn1 [Compound 92]
3 |  | > 1 | Cc1cc(-c2n[nH]c3cc4[nH]c(=O)c(C(C)Cc5ccc(F)cc5)cc4cc23)ccn1 (stereo not drawn) [Compound 73]
4 | < 0.05 |  | COc1cc(-c2n[nH]c3cc4[nH]c(=O)c(C5CCCN(Cc6ccccc6)C5)cc4cc23)ccn1 (stereo not drawn) [Compound 370]
5 | 0.25 to 1 |  | Cc1cc(-c2n[nH]c3cc4c(cc23)CN([C@@H]2CN(C)C[C@H]2C(C)C)C(=O)N4)ccn1 (mixture of isomers) [Compound 327]
6 | < 0.05 |  | Cc1cc(-c2n[nH]c3cc4c(cc23)CN([C@@H]2CN(C(C)C)C[C@H]2c2ccccc2)C(=O)N4)ccn1 (racemic) [Compound 279]
7 |  | 0.05 to 0.25 | O=C1Nc2cc3[nH]nc(C4CC4)c3cc2CN1Cc1ccc(F)c(Cl)c1 [Compound 42]
8 | < 0.05 |  | Cc1cc(-c2n[nH]c3cc4c(cc23)CN([C@@H]2CCN(CC(F)(F)F)C2)C(=O)N4)ccn1 [Compound 214]
9 |  | < 0.05 | O=C1Nc2cc3[nH]nc(-c4cn[nH]c4)c3cc2CN1Cc1ccc(F)c(Cl)c1 [Compound 48]
10 |  | 0.05 to 0.25 | Cc1cc(-c2n[nH]c3cc4c(cc23)CN(C2CCN(CCc3ccccc3)CC2)C(=O)N4)ccn1 [Compound 157]
11 |  | < 0.05 | O=C1Nc2cc3[nH]nc(-c4ccnnc4)c3cc2CN1Cc1cccc(C(F)(F)F)c1 [Compound 124]
12 | < 0.05 |  | Cc1cc(-c2n[nH]c3cc4c(cc23)CN(C2CCOC(C)(C)C2)C(=O)N4)ccn1 (stereo not drawn) [Compound 219]
13 | < 0.05 |  | Cc1cc(-c2n[nH]c3cc4c(cc23)CN([C@@H]2CCN(CC(F)(F)F)C2)C(=O)N4)cc(C)n1 [Compound 237]
14 |  | < 0.05 | Cc1cc(-c2n[nH]c3cc4c(cc23)CN(CCN2CCOCC2)C(=O)N4)ccn1 [Compound 51]
15 |  | 0.05 to 0.25 | Cc1cc(-c2n[nH]c3cc4c(cc23)CN([C@@H]2CCN(Cc3c(F)cccc3F)C2)C(=O)N4)ccn1 [Compound 147]
16 |  | < 0.05 | Cc1cc(-c2n[nH]c3cc4c(cc23)CN([C@H](C)CO)C(=O)N4)ccn1 [Compound 54]
17 | < 0.05 |  | Cc1cc(-c2n[nH]c3cc4c(cc23)CN([C@@H]2CCCN(CC(F)(F)F)C2)C(=O)N4)cc(C)n1 [Compound 244]
18 | < 0.05 |  | Cc1cc(-c2n[nH]c3cc4c(cc23)CN([C@@H]2CCCN(Cc3cccs3)C2)C(=O)N4)ccn1 [Compound 254]
19 | < 0.05 |  | Cc1cc(-c2n[nH]c3cc4c(cc23)CN([C@H]2CCN(CC(F)(F)F)C2)C(=O)N4)ccn1 [Compound 299]
20 | < 0.05 |  | Cc1cc(-c2n[nH]c3cc4c(cc23)CN([C@@H]2CCCN(Cc3ccc(F)s3)C2)C(=O)N4)ccn1 [Compound 290]
21 |  | < 0.05 | Cc1cc(-c2n[nH]c3cc4c(cc23)CN(Cc2ccc(F)c(Cl)c2)C(=O)N4)ccn1 [Compound 8]
22 | < 0.05 |  | Cc1cc(-c2n[nH]c3cc4c(cc23)CN(Cc2ccccc2)C(=O)N4)ccn1 [Compound 372]
23 |  | < 0.05 | Cc1cc(-c2n[nH]c3cc4c(cc23)CN(Cc2ccc(C#N)cc2)C(=O)N4)ccn1 [Compound 39]
24 |  | < 0.05 | O=C1Nc2cc3[nH]nc(-c4ccnnc4)c3cc2CN1[C@@H]1CCCN(Cc2c(F)cccc2F)C1 [Compound 122]
25 | 0.05 to 0.25 |  | Cc1cc(-c2n[nH]c3cc4c(cc23)CN([C@@H]2CCCN(C3CCC3)C2)C(=O)N4)ccn1 [Compound 210]
26 |  | < 0.05 | Cc1cc(-c2n[nH]c3cc4c(cc23)CN(C2CCOCC2)C(=O)N4)ccn1 [Compound 44]
27 | < 0.05 |  | Cc1cc(-c2n[nH]c3cc4c(cc23)CN(C2CCC(F)(F)CC2)C(=O)N4)ccn1 [Compound 224]
28 |  | < 0.05 | Cc1cc(-c2n[nH]c3cc4c(cc23)CN(C2CCN(Cc3ccccc3)CC2)C(=O)N4)ccn1 [Compound 70]
29 | < 0.05 |  | Cc1cc(-c2n[nH]c3cc4c(cc23)CN(C2CCCC2)C(=O)N4)cc(C)n1 [Compound 239]
30 |  | < 0.05 | Cc1cc(-c2n[nH]c3cc4c(cc23)CN(CCc2ccc(F)cc2)C(=O)N4)ccn1 [Compound 18]

Source: US9624228B2, “Inhibitors of ERK and methods of use” (KURA ONCOLOGY, INC., priority 2013, dated 2017)
